From PubChem BioAssay (NCI)
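The compound was tested at five concentrations on cells cultured in 96-well plates, with a 48-hour exposure period. Here, GI50 denotes the concentration required for 50% inhibition of growth. TGI is the concentration that stops growth completely.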

Experiments:
Test in all cases: NCI anticancer screen, dose series, 48 h
[1] = tested on: 786-0 renal
[2] = tested on: HL-60(TB) leukemia
[3] = tested on: SNB-19 CNS
[4] = tested on: RPMI-8226 leukemia
[5] = tested on: SF-268 CNS
[6] = tested on: CAKI-1 renal
[7] = tested on: SNB-75 CNS
[8] = tested on: SR leukemia
[9] = tested on: UACC-257 melanoma
[10] = tested on: HCT-116 colon

| Structure (SMILES) | TGI [1] [µM] | TGI [2] [µM] | TGI [3] [µM] | TGI [4] [µM] | TGI [5] [µM] | TGI [6] [µM] | TGI [7] [µM] | TGI [8] [µM] | TGI [9] [µM] | TGI [10] [µM] | GI50 [3] [µM] | GI50 [7] [µM] | GI50 [9] [µM] |
| --- | --- | --- | --- | --- | --- | --- | --- | --- | --- | --- | --- | --- | --- |
| BrC1(c2ccccc2)C[n+]2c(-c3ccccc3)cc(-c3ccccc3)cc2-c2ccccc21 (stereo unspecified) | 13.4 | 0.538 | 17.5 | 1.13 | 2.96 | 9.66 | 0.621 | > 42.5 | 2.55 | 8.32 | – | – | – |
| C/C(CCN(C)C)=N/O | 13.2 | 13.5 | > 100 | 11.4 | 2.49 | 24.2 | 33 | 5.67 | 33.2 | 12.5 | – | – | – |
| COc1ccc(C2C(=O)c3ccc(OC)cc3OC2c2cccnc2)cc1 (stereo unspecified) | > 100 | > 100 | > 100 | > 100 | > 100 | > 100 | > 100 | > 100 | > 100 | > 100 | – | – | – |
| CC(C)Oc1cccc(N2C(CCc3c[nH]c4ccc(Br)cc34)=NS(=O)(=O)c3cnccc32)c1 | > 100 | > 100 | > 100 | > 100 | > 100 | > 100 | > 100 | > 100 | > 100 | > 100 | – | – | – |
| CCNC(=S)N/N=C(/C)c1cccc(/C(C)=N\NC(=S)NCC)n1 | > 100 | 7.9 | > 100 | 25.7 | > 100 | 74.1 | > 73.2 | > 15.7 | 31.6 | 13.1 | – | – | – |
| COC(=O)[C@H](C)NC(=O)[C@H](NS(=O)(=O)c1nc2ccccc2s1)c1ccccc1 | 80.4 | > 100 | 73.3 | > 100 | 33.5 | 67.2 | 39.4 | > 100 | 26.3 | > 100 | – | – | – |
| C/C(=N\NC(=S)NC(C)(C)C)c1nc2ncccc2[nH]1 | > 100 | > 21.6 | > 90.5 | > 100 | > 31.6 | 16.4 | > 84.5 | > 72.2 | > 100 | > 100 | – | – | – |
| Cc1cc2nc(N3C(=O)/C(=C/Cc4ccco4)N=C3c3ccccc3)sc2cc1C | 96.6 | 46.1 | > 100 | > 100 | > 100 | > 100 | 59.9 | > 100 | > 100 | 54 | – | – | – |
| CCCCCCCCCCCCCCCCNc1nc(=O)n(C2OC(C)C(O)C2O)cc1F (stereo unspecified) | 35.6 | 75.1 | 39.7 | 33.9 | 44.5 | 41.8 | 33.1 | > 100 | 35.5 | 36.7 | – | – | – |
| Cn1c2c(c3c(=O)[nH]ncc31)Cc1ccccc1-2 | 51 | 69 | > 100 | 69 | 94.2 | > 100 | 34.9 | 28.4 | 27.1 | 60.8 | – | – | – |
| O=C(OCCN=c1c2ccccc2ccc2ccccc12)c1cc([N+](=O)[O-])cc([N+](=O)[O-])c1 | > 100 | > 100 | > 100 | > 100 | > 100 | > 100 | > 100 | > 100 | > 100 | > 100 | – | – | – |
| COC(=O)c1c(O)ccc2c1c1c(n2Cc2ccc(OC)cc2)C(=O)c2ccccc2C1 | > 100 | > 100 | > 100 | 31.5 | > 100 | 74.1 | > 100 | > 100 | > 100 | > 100 | – | – | – |
| O=C(/C=C/c1ccccc1)c1cc(CN2CCOCC2)c(O)c(CN2CCOCC2)c1 | 29 | 27.4 | > 100 | 21.4 | 46.6 | 4.36 | 38.9 | 24.2 | 31.1 | 31.3 | – | – | – |
| CN(Cc1cnc2nc(N)nc(N)c2n1)c1ccc(C(=O)NC(CCC(=O)O)C(=O)O)c2ccccc12 (stereo unspecified) | > 1000 | > 1000 | > 1000 | > 1000 | > 1000 | > 1000 | – | > 1000 | – | > 1000 | < 0.0174 | > 85.6 | < 0.0363 |
| CC(C)OC(=O)C(NC(=O)C(CC(=O)OCc1ccccc1)NC(=O)OCc1ccccc1)NC(=O)C1C(C)(C)CCC1(C)C (stereo unspecified) | 5.3 | > 40.4 | 16.1 | 24.2 | 45.9 | 21.9 | 11.5 | 7.5 | > 60.8 | 12 | – | – | – |
| O=C(/C=C\c1ccccc1)Oc1ccc(/C=C2\CCC/C(=C\c3ccc(OC(=O)/C=C\c4ccccc4)cc3)C2=O)cc1 | > 100 | > 100 | > 100 | > 100 | > 100 | > 100 | > 100 | > 100 | > 100 | > 100 | – | – | – |
| O=c1[nH]ncc2[nH]c3c(c12)CCc1ccccc1-3 | > 100 | 69 | > 100 | 70.7 | > 100 | > 100 | 76.1 | > 100 | > 100 | > 100 | – | – | – |

| Structure (SMILES) | TGI [1] [µM] | TGI [2] [µM] | TGI [3] [µM] | TGI [4] [µM] | TGI [5] [µM] | TGI [6] [µM] | TGI [7] [µM] | TGI [8] [µM] | TGI [9] [µM] | TGI [10] [µM] | GI50 [3] [µM] | GI50 [7] [µM] | GI50 [9] [µM] |
| --- | --- | --- | --- | --- | --- | --- | --- | --- | --- | --- | --- | --- | --- |
| Cc1ccc(C(=O)Nc2ccc(CP(=O)(O)O)cc2CP(=O)(O)O)cc1N | > 100 | > 100 | > 100 | > 100 | > 100 | > 100 | > 100 | > 100 | > 100 | > 100 | – | – | – |
| Cn1c(CO)ccc1-c1ccc(-c2ccc(CO)[se]2)[se]1 | > 76 | > 59.1 | > 100 | 12.1 | > 100 | 0.0381 | > 100 | > 100 | > 100 | 60 | – | – | – |
| O=c1[nH]c2c(Nc3c4ccccc4nc4ccccc34)c([N+](=O)[O-])c(Nc3c4ccccc4nc4ccccc34)c([N+](=O)[O-])c2[nH]1 | > 28.4 | > 23.7 | 13.7 | 8.27 | 6.74 | 6.69 | 7.79 | 4.07 | 10.4 | 8.45 | – | – | – |
| C[C@H]1CCC/C=C/[C@@H]2C[C@H](OC3OC(CO)C(O)C(O)C3O)C[C@H]2[C@H](O)/C=C/C(=O)O1 (stereo partly specified) | > 100 | > 100 | > 100 | > 100 | > 100 | > 100 | > 100 | > 100 | 78.9 | > 100 | – | – | – |
| CC(=O)OC12c3ccccc3C(c3ccccc31)C1C(=O)N(N=C(C)C)C(=O)C12 (stereo unspecified) | > 100 | > 100 | > 100 | > 100 | > 100 | > 100 | > 100 | > 100 | > 100 | > 100 | – | – | – |
| COCc1cc2c(s1)C(=O)C1=C(C2=O)C2(C=C(Br)C(=O)C(Br)=C2)CCN1 | 16.3 | 16.3 | 35.5 | 19.8 | 17.8 | 34.6 | 27.9 | 8.35 | 3.32 | 3.11 | – | – | – |
| CCOC(=O)C(Cc1ccc(N=NN(C)C)cc1)NC(=O)CC1c2ccccc2-c2ccccc21 (stereo unspecified) | > 100 | > 100 | > 100 | > 100 | > 100 | > 100 | > 100 | > 100 | > 100 | > 100 | – | – | – |
| COc1ccc2oc(=O)c(-c3cc4c(c(C)n3)c(=O)oc3ccc(OC)cc34)cc2c1 | 4.34 | > 100 | 57.6 | > 100 | > 100 | > 100 | > 100 | > 100 | > 100 | > 100 | – | – | – |
| OCCN1CCN(c2nc(N3CCCC3)c3nc(Cl)c(NCc4ccccc4)nc3n2)CC1 | 4.23 | 11.8 | 21.3 | 8.35 | 23.2 | 23.7 | 8.67 | 15.2 | 9.79 | 17.6 | – | – | – |
| O=C(Nc1cccc2ccccc12)c1cc2ccccc2oc1=O | 50.3 | > 100 | 85.1 | > 100 | > 100 | > 100 | > 100 | > 100 | > 100 | > 100 | – | – | – |
| O=C(O)[C@H]1NC[C@H]2C(Br)=NO[C@@H]12 | > 100 | > 100 | > 100 | > 100 | > 100 | > 100 | > 100 | > 100 | > 100 | > 100 | – | – | – |
| COc1c(OC2OC(CO)C(O)C(O)C2O)cc2c(c1OC)-c1ccc(OC)c(=O)cc1C(NC(C)=O)CC2 (stereo unspecified) | > 100 | > 100 | > 100 | > 100 | > 100 | > 100 | > 84.4 | > 100 | > 100 | > 100 | – | – | – |
| COc1cc2c(cc1O)C(Cc1ccc(OCc3ccccc3)c(OCc3ccccc3)c1)N(C(=O)NCCc1ccccc1)CC2 (stereo unspecified) | > 100 | > 100 | > 100 | > 100 | > 100 | > 100 | > 100 | > 100 | > 100 | > 100 | – | – | – |
| COC(=O)CCC(C)[C@H]1CCC2C3CC[C@@H]4CC5(CC[C@]4(C)C3C[C@H](OC(C)=O)[C@@]21C)OOC1(CCCCC1)OO5 (stereo partly specified) | > 100 | 8.89 | > 100 | 10.8 | > 100 | 37 | > 100 | > 100 | > 100 | > 100 | – | – | – |
| O=C(O)CCCc1ccc2c(c1)C(C(=O)O)CC2 (stereo unspecified) | > 100 | > 100 | > 100 | > 100 | > 100 | > 100 | > 100 | > 100 | > 100 | > 100 | – | – | – |
| CC1(C)CCC[C@@]2(C)C1CC[C@@]1(CO)O[C@H](C3=CC(=O)OC3O)C[C@H]12 (stereo partly specified) | 38.6 | 4.31 | 32.3 | > 36.1 | > 55.6 | 28.6 | 29.2 | 7.58 | 35 | 18.6 | – | – | – |
